Reference: PMC6328375 (Molecular pharmaceutics, 2017)
Where “and” joins values, the source holds several entries; their conditions need not be identical. Equal entries are not always repeated. Structures can show the parent of a compound that is named as a salt.

Assays:
[1] = cited from earlier work
OCT1 [2] = biological target: T1, OCT1 (Homo sapiens, UniProt O15245); assay: Uptake in HEK293 cells overexpressing OCT1; type: in vitro ADME; settings: for P, OCT1 / Vmax, OCT1 / P (non-saturable clearance parameter), OCT1 / Vmax (maximum uptake rate), OCT1 / Km: HEK293-OCT1, 0.1–1000 μM; for Vmax (maximum uptake rate), OCT1: estimate ± standard error (n = 6); for Km: read-out: Km (Michaelis-Menten constant), OCT1; for Time dependent uptake in HEK-OCT1 cells versus empty vector controls (HEK-P5): 5 μM MPP+ or 50 μM metformin, 1–30 min
T1 sequence (O15245 1-554): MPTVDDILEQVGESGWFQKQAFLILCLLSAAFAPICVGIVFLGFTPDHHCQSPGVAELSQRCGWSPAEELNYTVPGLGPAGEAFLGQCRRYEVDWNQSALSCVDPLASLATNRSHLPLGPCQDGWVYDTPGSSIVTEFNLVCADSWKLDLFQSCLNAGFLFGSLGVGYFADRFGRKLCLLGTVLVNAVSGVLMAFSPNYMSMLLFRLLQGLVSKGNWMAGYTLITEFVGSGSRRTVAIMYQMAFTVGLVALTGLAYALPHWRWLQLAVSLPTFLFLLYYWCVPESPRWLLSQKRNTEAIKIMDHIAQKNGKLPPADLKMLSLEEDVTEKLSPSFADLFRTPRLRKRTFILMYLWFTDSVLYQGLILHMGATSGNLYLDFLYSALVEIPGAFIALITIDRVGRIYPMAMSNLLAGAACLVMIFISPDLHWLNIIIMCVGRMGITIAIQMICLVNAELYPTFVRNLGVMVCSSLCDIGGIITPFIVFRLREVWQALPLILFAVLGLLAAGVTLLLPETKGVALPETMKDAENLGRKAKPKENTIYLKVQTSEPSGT

OCT2 [3] = biological target: T2, OCT2 (Homo sapiens, UniProt O15244); assay: Inhibition of [14C]-metformin uptake in HEK293 cells expressing OCT2; type: cell-based; settings: for inhibition at 50 μM: human, HEK293 cells expressing OCT2
T2 sequence (O15244 1-555): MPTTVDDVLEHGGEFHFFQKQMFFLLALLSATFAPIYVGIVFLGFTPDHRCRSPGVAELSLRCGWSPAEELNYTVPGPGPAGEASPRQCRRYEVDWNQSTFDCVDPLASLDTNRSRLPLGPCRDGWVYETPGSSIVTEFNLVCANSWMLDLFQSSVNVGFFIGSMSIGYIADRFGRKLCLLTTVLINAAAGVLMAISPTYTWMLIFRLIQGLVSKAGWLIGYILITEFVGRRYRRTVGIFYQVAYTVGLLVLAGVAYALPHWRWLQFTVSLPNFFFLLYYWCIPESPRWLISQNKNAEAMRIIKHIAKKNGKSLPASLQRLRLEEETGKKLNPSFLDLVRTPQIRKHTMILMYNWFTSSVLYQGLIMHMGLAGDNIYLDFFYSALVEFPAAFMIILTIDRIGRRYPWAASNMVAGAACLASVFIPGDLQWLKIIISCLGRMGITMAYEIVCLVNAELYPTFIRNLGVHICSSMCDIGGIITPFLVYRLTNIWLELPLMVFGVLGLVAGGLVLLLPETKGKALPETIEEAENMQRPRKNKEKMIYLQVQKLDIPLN

OCT1 [4] = biological target: T1, OCT1; assay: Inhibition of [3H]-MPP+ uptake in HEK293 cells expressing OCT1; type: cell-based; settings: 50 μM compound, 5 μM MPP+, biguanide vs parent amine
OCT2 [5] = biological target: T2, OCT2; assay: Uptake in HEK293 cells overexpressing OCT2; type: in vitro ADME; settings: for P, OCT2 / Vmax, OCT2 / P (non-saturable clearance parameter), OCT2 / Vmax (maximum uptake rate), OCT2 / Km: HEK293-OCT2, 0.1–1000 μM; for Vmax (maximum uptake rate), OCT2: estimate ± standard error (n = 6); for Km: read-out: Km (Michaelis-Menten constant), OCT2; for Time dependent uptake in HEK-OCT2 cells versus empty vector controls (HEK-P5): 5 μM MPP+ or 50 μM metformin, 1–30 min
OCT2 [6] = biological target: T2, OCT2; settings: 50 μM compound, 5 μM MPP+, biguanide vs parent amine
OCT1 [7] = biological target: T1, OCT1; assay: Inhibition of [14C]-metformin uptake in HEK293 cells expressing OCT1; type: cell-based
OCT3 = biological target: T3, OCT3 (Homo sapiens, UniProt O75751); assay: Uptake in HEK293 cells stably overexpressing OCT3; type: in vitro ADME; settings: 100 μM
T3 sequence (O75751 1-556): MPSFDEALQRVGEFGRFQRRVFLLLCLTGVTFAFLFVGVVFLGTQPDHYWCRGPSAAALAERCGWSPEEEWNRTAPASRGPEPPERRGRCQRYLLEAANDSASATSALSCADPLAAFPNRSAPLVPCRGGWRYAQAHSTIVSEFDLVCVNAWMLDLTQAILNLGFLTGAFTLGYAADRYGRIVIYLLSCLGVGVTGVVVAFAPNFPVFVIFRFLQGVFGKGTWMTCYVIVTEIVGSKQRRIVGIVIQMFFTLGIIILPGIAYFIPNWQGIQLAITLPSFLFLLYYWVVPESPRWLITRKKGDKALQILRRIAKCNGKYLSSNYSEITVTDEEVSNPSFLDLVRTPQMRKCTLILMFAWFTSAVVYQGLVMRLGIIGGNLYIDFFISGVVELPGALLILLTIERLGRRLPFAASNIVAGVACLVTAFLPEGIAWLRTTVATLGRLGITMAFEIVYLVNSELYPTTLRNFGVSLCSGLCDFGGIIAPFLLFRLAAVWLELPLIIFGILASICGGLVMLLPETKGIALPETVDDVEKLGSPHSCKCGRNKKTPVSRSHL

[8] = 50 μM compound, 50 μM metformin

For `CC(C)[C@H](N)C(=O)OCCOCn1cnc2c(=O)[nH]c(N)nc21` [valacyclovir], the Oral bioavailability [1] is given as 50%.

In the case of `[H]/N=C(/N)N/C(=N/[H])NCCc1ccccc1` [phenformin, reference compound], the “OCT1 substrate (fold uptake increase of 1.5 and greater over HEK-P5)” value (OCT1 [2]; 100 μM, 10 min, HEK-OCT1 vs empty vector) is reported as “substrates”, the inhibition at 50 μM (OCT2 [3]) is reported as no less than 50% and the “Change of inhibition of OCT1-mediated uptake of MPP+ upon addition of the biguanide moiety” value (OCT1 [4]) is reported as “increased inhibition”. For the same compound, the “OCT2 substrate (fold uptake increase of 1.5 and greater over HEK-P5)” value (OCT2 [5]; 100 μM, 10 min, HEK-OCT2 vs empty vector) was “substrates” and the “Change of inhibition of OCT2-mediated uptake of MPP+ upon addition of the biguanide moiety” value (OCT2 [6]) was “less inhibition”.

In the case of `N=C(NN)Nc1ccc(C(=O)O)cc1` [2m, p-(3-Aminoguanidino)-benzoic Acid], the “Inhibition of OCT2 mediated metformin uptake” value (OCT2 [3]; [8]) is reported as “only inhibited OCT1” and the “Inhibition of OCT1 mediated metformin uptake” value (OCT1 [7]; [8]) is reported as “inhibited”.

In the case of `N=C(N)NC(=N)NCCc1ccc(-c2ccccc2)cc1` [2g, 2-(4-Biphenyl)ethyl-biguanide], the “Change of inhibition of OCT2-mediated uptake of MPP+ upon addition of the biguanide moiety” value (OCT2 [6]) is reported as “less inhibition”.

With `N=C(N)NC(=N)NCC(c1ccccc1)c1ccccc1` [2f, 2,2-Diphenylethyl-biguanide] the “P, OCT1” value (OCT1 [2]) was 1.7 fl/min/mg protein, the “Vmax, OCT1” value (OCT1 [2]) was 2.0 pmol/min/mg protein and the “P (non-saturable clearance parameter), OCT1” value (OCT1 [2]; 10 min) was 1.7e-09 ± 2e-10 µL/min/mg. The “Vmax (maximum uptake rate), OCT1” value (OCT1 [2]; 10 min) was 2.0 ± 0.1 pmol/mg/min, the Km (OCT1 [2]; 10 min) was 14.2 µM and 14 µM and the OCT3 substrate (OCT3) was “either none or very weak substrates”. The “P, OCT2” value (OCT2 [5]) was 0.6 fl/min/mg protein, the “Vmax, OCT2” value (OCT2 [5]) was 1.8 pmol/min/mg protein and the “P (non-saturable clearance parameter), OCT2” value (OCT2 [5]; 10 min) was 6e-10 ± 3e-10 µL/min/mg. For the same compound, the “Vmax (maximum uptake rate), OCT2” value (OCT2 [5]; 10 min) was 1.8 ± 0.2 pmol/mg/min and the Km (OCT2 [5]; 10 min) was 12.4 µM and 12 µM.

With `N=C(N)NC(=N)NCCOc1ccccc1` [2h, 1-(2-Phenoxyethyl)-biguanide] the inhibition at 50 μM (OCT2 [3]) was no less than 50% and the “Change of inhibition of OCT1-mediated uptake of MPP+ upon addition of the biguanide moiety” value (OCT1 [4]) was “increased inhibition”.

With `C[n+]1ccc(-c2ccccc2)cc1` [MPP^+, 1-methyl-4-phenylpyridinium, reference compound] the “Time dependent uptake in HEK-OCT1 cells versus empty vector controls (HEK-P5)” value (OCT1 [2]) was “higher” and the “Time dependent uptake in HEK-OCT2 cells versus empty vector controls (HEK-P5)” value (OCT2 [5]) was “higher”.

`N=C(N)NC(=N)NCCCc1ccccc1` [2c, 1-(3-Phenylpropyl)-biguanide HCl] showed an inhibition at 50 μM (OCT1 [7]; human, HEK293 cells expressing OCT1) of no less than 50%.

For `Cl.N=C(N)NC(=N)NC1Cc2ccccc2C1` [2j, 2,3-Dihydro-1H-inden-2-yl-biguanide HCl], the “P, OCT1” value (OCT1 [2]) was 0.6 fl/min/mg protein, the “Vmax, OCT1” value (OCT1 [2]) was 0.3 pmol/min/mg protein and the “P (non-saturable clearance parameter), OCT1” value (OCT1 [2]; 10 min) was 6e-10 ± 8e-11 µL/min/mg. For the same compound, the “Vmax (maximum uptake rate), OCT1” value (OCT1 [2]; 10 min) was 0.3 ± 0.05 pmol/mg/min, the Km (OCT1 [2]; 10 min) was 16.9 µM and 17 µM and the “Inhibition of metformin transport in HEK-OCT2 cells” value (OCT2 [3]; [8]) was no less than 50%. For the same compound, the “Inhibition of metformin transport in HEK-OCT1 cells” value (OCT1 [7]; [8]) was no less than 50%, the OCT3 substrate (OCT3) was “either none or very weak substrates” and the “Uptake fold ratio in OCT3 cells” value (OCT3; single concentration) was “significant increase”. The “P, OCT2” value (OCT2 [5]) was 0.1 fl/min/mg protein, the “Vmax, OCT2” value (OCT2 [5]) was 1.1 pmol/min/mg protein and the “P (non-saturable clearance parameter), OCT2” value (OCT2 [5]; 10 min) was 1e-10 ± 5e-11 µL/min/mg. The “Vmax (maximum uptake rate), OCT2” value (OCT2 [5]; 10 min) was 1.1 ± 0.04 pmol/mg/min and the Km (OCT2 [5]; 10 min) was 31.7 µM and 32 µM.

For `CN(C)C(=N)N=C(N)N` [metformin, reference compound], the “Time dependent uptake in HEK-OCT1 cells versus empty vector controls (HEK-P5)” value (OCT1 [2]) was “higher” and the “Time dependent uptake in HEK-OCT2 cells versus empty vector controls (HEK-P5)” value (OCT2 [5]) was “higher”.
